The text below walks through data of PubChem BioAssay (NCI).

Common to all, as to experiment: NCI-60 cell line screen, 48 h
The subject of assay [1] is MALME-3M melanoma.
Assay [2] relates to NCI-H226 lung.
In assay [3] the test system is RPMI-8226 leukemia.
The subject of assay [4] is SN12C renal.
Assay [5] has as its system SNB-75 CNS.
Assay [6] has as its system ACHN renal.
For assay [7], the system named is OVCAR-8 ovarian.
For assay [8], the system named is NCI-H23 lung.
The test system of assay [9] is IGROV1 ovarian.
The subject of assay [10] is LOX IMVI melanoma.

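In this assay, cells in 96-well plates receive the compound at five concentrations for 48 hours. Endpoints are linearly interpolated between the surrounding concentrations. The concentration for 50% growth inhibition is given as GI50. Definition used: TGI = concentration required for complete inhibition of growth.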

For the compound `O=C(Cc1ccc(/C=C/C(=O)c2ncc[nH]2)cc1)Nc1ccc(Br)cc1`, the GI50 in assay [1] is 3.12 µM; in assay [2], 3.31 µM; in assay [3], 0.705 µM; in [4] it was 2.59 µM; in assay [5], 2.37 µM; in assay [6], 2.72 µM. The GI50 is 4.04 µM in [7], 2.2 µM in assay [8], 2.37 µM in [9] and 0.889 µM in [10]. In addition, the TGI in assay [1] was 7.69 µM; in assay [2] it was 10.1 µM; in [3] it was 4.06 µM; in assay [4], 6.93 µM; in assay [5] it was > 16.7 µM; in [6], 5.25 µM. The TGI was > 16.7 µM in [7], 8.5 µM in assay [8], 7.22 µM in [9] and 3.12 µM in assay [10].

With `CC(C)[C@@H](C(=O)O[C@@H]1/C=C/C(=O)O[C@@H](C)CCC/C=C/[C@@H]2C[C@H](O)C[C@H]21)[N+](C)(C)C`, the GI50 in assay [1], in assay [2], in assay [3], in assay [4], in assay [5] and in assay [6] was > 100 µM in each case. In addition, the GI50 in assay [7], in [8], in assay [9] and in [10] was > 100 µM throughout. Also, the TGI in [1], in [2], in [3], in [4], in assay [5] and in [6] was > 100 µM in each case. Further, the TGI in [7], in assay [8], in assay [9] and in assay [10] was > 100 µM each time.

Consider `COc1cc(NCC(C#N)C#N)ccc1N=Nc1ccc([N+](=O)[O-])cc1`, for which the TGI in assay [1], in assay [2], in assay [3], in assay [4], in assay [5] and in assay [6] was > 100 µM each time. Besides, the TGI in assay [7], in [8], in assay [9] and in assay [10] was > 100 µM each time.

In the case of `CC12C=CC(C)(O1)C1C2c2ccccc2S1(=O)=O` (stereo not given), the GI50 is 50.3 µM in assay [1]; 42 µM in assay [2]; 44.3 µM in assay [3]; 64.4 µM in assay [4]; 23.2 µM in assay [5]; 69.2 µM in [6]. The GI50 was > 100 µM in [7], 46.6 µM in assay [8], 25.1 µM in assay [9] and 46.6 µM in [10]. Also, the TGI in assay [1], in assay [2], in assay [3], in assay [4], in assay [5] and in assay [6] was > 100 µM each time. Besides, the TGI in assay [7] was > 100 µM; in [8], > 100 µM; in assay [9], 95.3 µM; in [10], > 100 µM.

Take `O=C1C[C@@H](c2ccccc2)NCCCCN(O)CCCN1`: the TGI in assay [1], in assay [2], in [3], in assay [4], in [5] and in assay [6] was > 100 µM in each case. Besides, the TGI in assay [7], in [8], in assay [9] and in [10] was > 100 µM throughout.

With `COc1cc2c(cc1OCCCCCCNC(=O)c1cc3ccccc3[nH]1)N=CC1CCCN1C2=O` (stereo not given), the GI50 in assay [1] was 20.5 µM; in [2], 58 µM; in [3], 18.7 µM; in [4], 65 µM; in assay [5], 64.2 µM; in assay [6], 35.2 µM. Moreover, the GI50 was 30.5 µM in [7], 51 µM in assay [8], 17.4 µM in [9] and 31.8 µM in assay [10]. Further, the TGI is > 100 µM in [1]; > 100 µM in [2]; 77.6 µM in assay [3]; > 100 µM in assay [4]; > 100 µM in assay [5]; > 100 µM in assay [6]. The TGI in assay [7], in [8], in assay [9] and in [10] was > 100 µM each time.

Regarding `NC(=O)Nc1ccc2ncnc(Nc3ccc(Cl)cc3)c2c1`, the GI50 was 28.2 µM in assay [1]; 22.9 µM in assay [2]; 24.3 µM in [3]; 11.4 µM in [4]; 8 µM in [5]; 1.49 µM in assay [6]. For the same compound, the GI50 in assay [7] is 20.4 µM; in [8], 21.6 µM; in [9], 9.06 µM; in [10], 18.1 µM. In addition, the TGI in assay [1] was > 77.9 µM; in assay [2], > 100 µM; in assay [3], > 88.8 µM; in assay [4] it was > 70.7 µM; in [5] it was 61 µM; in assay [6], 45.3 µM. In addition, the TGI in [7] is > 96.6 µM; in [8], 69 µM; in assay [9], 34.3 µM; in [10] it was 57.7 µM.

On to `Cn1c(=O)c(C(c2ccccc2)c2c(O)c3ccccc3n(C)c2=O)c(O)c2ccccc21`, for which the TGI is > 100 µM in assay [1]; 65.9 µM in assay [2]; > 100 µM in [3]; > 100 µM in assay [4]; > 100 µM in assay [5]; > 100 µM in [6]. For the same compound, the TGI in assay [7], in assay [8], in assay [9] and in [10] was > 100 µM in each case.

Turning to `Cc1c(N2C(=O)/C(=C\c3ccc(O)cc3)N=C2c2ccccc2)c(=O)n(-c2ccccc2)n1C`, the GI50 in [1], in [2], in assay [3], in [4], in assay [5] and in [6] was > 100 µM each time. For the same compound, the GI50 in [7], in assay [8], in assay [9] and in assay [10] was > 100 µM throughout. Further, the TGI in assay [1], in [2], in assay [3], in [4], in assay [5] and in [6] was > 100 µM throughout. Further, the TGI in assay [7], in assay [8], in assay [9] and in [10] was > 100 µM throughout.
